Test results reported in article PMC5068747, “Using C. elegans Forward and Reverse Genetics to Identify New Compounds with Anthelmintic Activity” (PLoS Neglected Tropical Diseases, 2016).
pIC50: −log10 of the molar value.

Experiments:
[1] = system: C. elegans RB2119 (acr-23(ok2804), monepantel-resistant); assay: IC50 on amino-acetonitrile resistant C. elegans strain; assay type: in vivo, Caenorhabditis elegans; conditions: Caenorhabditis elegans, 120 h; 5 days exposure, 2 L4 per well, three biological replicates; read-out: IC50, strain RB2119 (amino-acetonitriles)
C. elegans VC2010 = assay: Manual inspection of growth, brood size, developmental stage and recovery of C. elegans in drug; assay type: in vivo, Caenorhabditis elegans
Protocol: WormScan is a powerful tool to identify compounds with potential effects on the nematode, but it is still necessary to do manual inspection of wells with few animals to determine details of growth, behavior and fecundity. Wild-type worms grown in 90 μM CID 2747322 have brood sizes reduced by 97%. […] All current classes of anthelmintic have greater specificity towards certain life-stages. It is interesting that when removed from the drug L1s will recover and develop, and generally become fertile adults (See S3 Fig).
Supplementary file pntd.0005058.s002.tiff: S2 Fig Developmental stage of inhibition in C. elegans after CID 2747322 exposure. Ten VC2010 L1 stage C. elegans were sorted into a DMSO control well or 90 μM of CID 2747322. Nematodes were removed from the DMSO control or CID 2747322 after 24/48/72 hours and allowed to recover for 30 minutes on standard agar plates. (TIFF) Click here for additional data file.
Supplementary file pntd.0005058.s003.tiff: S3 Fig Development of C. elegans after removel from CID 2747322. Greater than 50 VC2010 L1 stage C. elegans were sorted into a DMSO control well or 90 μM of CID 2747322. Nematodes were removed from DMSO control or CID 2747322 after 2 days of exposure and left to recovery for 24/48/72 hours. (TIFF) Click here for additional data file.

C. briggsae = assay: Dosage curve on C. briggsae; assay type: in vivo; conditions: Caenorhabditis briggsae, 120 h; two L4 per well, five days of exposure
Excerpt: Supplementary file pntd.0005058.s004.pdf: S4 Fig Dosage curve for effects on C. briggsae of CID 2747322. Two L4 C. briggsae animals were placed into each well of a 96-well pate for five days of exposure to CID 2747322. […] (PDF) Click here for additional data file.

[2] = system: C. elegans pink-1 mutant strains; assay: Resistance of pink-1 mutant strains (MMP / knockout) to CID 2747322; assay type: in vivo, Caenorhabditis elegans

Structure (SMILES): COc1ccc(OCCNC(=O)c2ccccc2C(F)(F)F)cc1 [CID 2747322, N-[2-(4-methoxyphenoxy)ethyl]-2-(trifluoromethyl)benzamide]
- pIC50 [1]: 5.30
- developmental stage of inhibition (C. elegans VC2010; 90 μM, while maintained in drug): arrest at the first larval stage (L1)
- outcome after exposure / removal from drug (C. elegans VC2010; L1s removed from the drug): reversible inhibition
- brood sizes reduced (C. elegans VC2010; wild-type worms grown in 90 μM): 97%
- pIC50 (C. briggsae): 4.80
- Resistance ([2]; strain RB2547, pink-1 Knockout): none
- Resistance ([2]; strain VC20205, pink-1 W562stop): none
- Resistance ([2]; strain VC20423, pink-1 V373I): none
- Resistance ([2]; strain VC20470, pink-1 E162K): none
- Resistance ([2]; strain VC20521, pink-1 P226S): sensitive
- Resistance ([2]; strain VC20546, pink-1 P32L): sensitive
- Resistance ([2]; strain VC20588, pink-1 A628T): none
- Resistance ([2]; strain VC30104, pink-1 Knockout): none
- Resistance ([2]; strain VC30182, pink-1 G415E): none
- Resistance ([2]; strain VC40096, pink-1 M1I): none
- Resistance ([2]; strain VC40194, pink-1 D378N): resistant
- Resistance ([2]; strain VC40287, pink-1 S341N): resistant
- Resistance ([2]; strain VC40373, pink-1 A365T): none
- Resistance ([2]; strain VC40385, pink-1 L232F): resistant
- Resistance ([2]; strain VC40392, pink-1 T65I): none
- Resistance ([2]; strain VC40527, pink-1 V334I): none
- Resistance ([2]; strain VC40694, pink-1 M556L): resistant
- Resistance ([2]; strain VC40738, pink-1 E353K): none
- Resistance ([2]; strain VC41008, pink-1 L180F): resistant
